US9242978B2, “Phenylacetamide compound and pharmaceutical containing same” (KOWA COMPANY, LTD., priority 2012, dated 2016)
Where two headings read alike, the source gives them in different places.

Key:
[1] = Evaluation of organ selectivity (non-binding drug concentration in liver and pancreas after oral administration); assay type: in vivo, normal mice (C57BL/6j mice); settings: mice, 150 minutes after administration
[2] = system: normal mice (C57BL/6j mice); test: Oral glucose tolerance test with normal mice after single administration of test compound; assay type: in vivo; settings: 30 mg/kg oral, 2 g/kg glucose oral 30 minutes later, FIG. 1
Procedure: The test compound (Example 5) (30 mg/kg) suspended in 10%(v/v) Gelucire44/14 (GATTEFOSSE) was orally administered to normal mice (C57BL/6j mice, CLEA Japan, Inc.). Thirty minutes later, 2 g/kg glucose was orally administered to the mice. The blood glucose level was measured using an automatic blood glucose level measurement apparatus (Medisafe, TERUMO), before administration of the test compound, 25 minutes after administration of the test compound, and 15, 30, 60, and 120 minutes after administration of glucose. Thus, the action of the test compound to lower blood glucose level was evaluated.

[3] = system: normal mice (C57BL/6j mice); test: Transition in blood glucose levels after single administration of test compound to normal mice; assay type: in vivo; settings: 30 mg/kg oral, 1, 2, 4 and 6 hours after administration, FIG. 2
Procedure: A test compound (30 mg/kg, Example 5) suspended in 10% (v/v) Gelucire 44/14 (GATTEFOSSE) was orally administered to normal mice (C57BL/6j mice, CLEA Japan, Inc.). The blood glucose level was measured using an automatic blood glucose level measurement apparatus (Medisafe, TERUMO), before administration of the test compound, and 1, 2, 4, and 6 hours after administration of the test compound. Thus, the hypoglycemic action of the test compound was evaluated.

[4] = Evaluation of organ selectivity (non-binding drug concentration in liver and pancreas after oral administration); assay type: in vivo, normal mice (C57BL/6j mice); settings: mice, 150 minutes after administration; for concentration at 150 min: C57BL/6j, mouse, dose 30 mg/kg
Procedure: A test compound suspended in 10% (v/v) Gelucire 44/14 (GATTEFOSSE) was orally administered to normal mice (C57BL/6j mice, CLEA Japan, Inc.). The percentages of drugs that had not bound to proteins in the liver and the pancreas, which had been obtained by the in vitro test, were […] the total concentrations of the drugs in the liver and the pancreas obtained 150 minutes after administration of the drugs, so as to calculate the non-binding concentration of the drug in each case. The ratio of the non-binding concentration of the drug in the […] was calculated, and thus, liver selectivity was evaluated. As a comparative compound, PSN-GK1 described in non-patent document 11 (corresponding to Example 94 of patent document 2) was produced according to the method described in patent document 2, and the produced comparative compound was then evaluated in the same manner as described above (in the table, the comparative compound is indicated as PSN-GK1).

[5] = target: T1, GST-GK derived from human liver GK (Homo sapiens, UniProt P35557); test: In vitro GK activating action measurement test; assay type: biochemical; settings: 10 min; test compound 1 μmol/L, glucose 2.5 mmol/L, 25° C.; read-out: GK activation rate (%)
T1 construct: made in house; host or cells: Escherichia coli DH5α
T1 sequence (P35557 1-466 isoform P35557-2): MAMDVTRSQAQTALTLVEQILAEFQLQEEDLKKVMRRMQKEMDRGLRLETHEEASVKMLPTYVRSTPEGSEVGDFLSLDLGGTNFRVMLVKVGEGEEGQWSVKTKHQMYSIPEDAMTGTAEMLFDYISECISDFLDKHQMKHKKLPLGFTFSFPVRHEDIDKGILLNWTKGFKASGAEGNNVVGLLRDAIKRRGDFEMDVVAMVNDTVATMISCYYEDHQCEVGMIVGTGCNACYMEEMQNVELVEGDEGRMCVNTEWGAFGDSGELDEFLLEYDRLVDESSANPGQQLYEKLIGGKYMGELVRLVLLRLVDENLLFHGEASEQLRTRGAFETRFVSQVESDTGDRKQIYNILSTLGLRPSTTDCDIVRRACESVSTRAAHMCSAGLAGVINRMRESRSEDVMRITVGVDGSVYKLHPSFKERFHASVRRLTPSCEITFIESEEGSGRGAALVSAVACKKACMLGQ
Excerpt: cDNA (GenBank Accession No. NM_033507, human glucokinase, variant 2) encoding human liver-type GK polypeptide was cloned by performing a polymerase chain reaction (hereinafter referred to as “PCR”) using a human liver cDNA library (Human liver QUICK-Clone cDNA, TAKARA BIO INC.), and the thus cloned cDNA was then introduced into an expression vector (pGEX-3X, GE Healthcare Japan) for glutathione S transferase (hereinafter referred to as GST) fusion proteins. The resulting vector was introduced into Escherichia coli (Competent high DH5α, Toyobo Co., Ltd.), and the transformed Escherichia coli was then cultured at 37° C. Thereafter, Isopropyl β-D-1-thiogalactopyranoside (final concentration: 1 mmol/L, Sigma Aldrich Japan) was added to the culture, and the obtained mixture was then cultured at 30° C. for 3 hours. Thereafter, a cell mass was recovered. The recovered cell mass was subjected to freezing-and-thawing, and the resulting cell mass was then suspended in Triton-X that had been added in a final concentration of 1% to a phosphate buffer, followed by disintegration with an ultrasonic disintegrator. The homogenate was centrifuged at 33,200 rpm at 4° C. for 1 hour. Thereafter, the supernatant was recovered, and a GST-GK fusion protein was then purified using a glutathione column (GSTrap FF, GE Healthcare Japan). The obtained GST-GK fusion protein was divided into some portions each having a small volume, and the thus divided proteins were then preserved at −80° C.
A GK assay was carried out at 25° C. at a final incubation volume of 100 μL using a flat-bottom 96-well assay plate. An assay buffer comprised 25 mmol/L Hepes buffer (pH 7.1), 25 mmol/L KCl, 2.5 mmol/L or 10 mmol/L D-glucose, 5 mmol/L ATP, 1 mmol/L nicotinamide adenine dinucleotide phosphate (abbreviated as NADP), 2 mmol/L MgCl2, 1 mmol/L dithiothreitol (DTT), 2 units/mL glucose-6 phosphate dehydrogenase (G6PDH), and 1 μg/mL GST-GK derived from human liver GK. ATP, G6PDH, and NADP were purchased from Roche Diagnostics. […] The thus mixed solution was preincubated in an incubator in which the temperature was controlled at 25° C. for 15 minutes. Subsequently, the reaction was initiated by adding 10 μL of the GST-GK solution to the reaction mixture, resulting in a final concentration of 0.1 μg/mL. After initiation of the reaction, an increase in the optical concentration at 340 nm (OD340) was monitored with a microplate spectrophotometer (Varsamax, Molecular Devices Japan K. K.) every 10 seconds over an incubation period of 10 minutes. An inclination of the OD340 increase was defined as raw data. The GK activating rate was indicated as a numerical value obtained from the expression: (Inclination of OD340 increase by addition of the test compound)/(inclination of OD340 increase without addition of the test compound). The results of the GK activating rate obtained at a test compound concentration of 1 μmol/L under the condition of a glucose concentration of 2.5 mmol/L are shown in the following table 2.

[6] = system: normal mice; settings: low dose; non-patent document 11; cited from earlier work

CCNC(=O)N1CC[C@H](C[C@@H](C(=O)Nc2ncc(F)s2)c2ccc(S(=O)(=O)C3CC3)cc2)C1 [Example 5, (S)-3-((R)-2-(4-(cyclopropylsulfonyl)phenyl)-3-((5-fluorothiazol-2-yl)amino)-3-oxopropyl)-N-ethylpyrrolidine-1-carboxamide]
selectivity ratio at 150 min ([1]; C57BL/6j, mouse, liver and pancreas, dose 30 mg/kg): 27
blood glucose level in oral glucose tolerance test versus solvent alone [2]: lower than that of the mice orally administered with the solvent alone
blood glucose level after single administration versus solvent alone [3]: almost equal to the blood glucose level of the mice orally administered with the solvent alone
concentration at 150 min ([4]; liver, read-out: Non-binding concentration (ng/mL) Liver): 47 ng/mL
concentration at 150 min ([4]; pancreas, read-out: Non-binding concentration (ng/mL) Pancreas): 1.8 ng/mL
activity at 1 µM [5]: 561%

O=C(Nc1ncc(F)s1)[C@H](CC1CCOCC1)c1ccc(S(=O)(=O)C2CC2)cc1 [PSN-GK1, reference compound]
Selectivity Liver/pancreas ([1]; dose 1 mg/kg): 1.0
Selectivity Liver/pancreas ([1]; dose 10 mg/kg): 1.2
Non-binding concentration (ng/mL) Liver ([4]; dose 1 mg/kg): 0.56 ng/mL
Non-binding concentration (ng/mL) Pancreas ([4]; dose 1 mg/kg): 0.58 ng/mL
Non-binding concentration (ng/mL) Liver ([4]; dose 3 mg/kg): 1.4 ng/mL
Non-binding concentration (ng/mL) Pancreas ([4]; dose 3 mg/kg): 1.7 ng/mL
Selectivity Liver/pancreas ([4]; dose 3 mg/kg): 0.8
Non-binding concentration (ng/mL) Liver ([4]; dose 10 mg/kg): 7.4 ng/mL
Non-binding concentration (ng/mL) Pancreas ([4]; dose 10 mg/kg): 6.0 ng/mL
hypoglycemic action on normal mice [6]: has a hypoglycemic action on normal mice
